Key:
[1] = biological target: T1, Endoplasmic reticulum aminopeptidase 1 (Homo sapiens, UniProt Q9NZ08); test: Inhibition of ERAP1 (unknown origin) using L-Rho-Succ-FKARKF as substrate
[2] = biological target: T1, Endoplasmic reticulum aminopeptidase 1
Description: Inhibition of wild type ERAP1 (unknown origin) using L-Rho-Succ-FKARKF as substrate preincubated for 15 mins followed by substrate addition and measured after 20 mins by flourescence assay

[3] = biological target: Endoplasmic reticulum aminopeptidase 2 (Homo sapiens, UniProt Q6P179); test: Inhibition of ERAP2 (unknown origin) using Arg-AMC as substrate
[4] = biological target: Aminopeptidase N (Homo sapiens, UniProt P15144); test: Inhibition of APN (unknown origin) using Ala-AMC as substrate
[5] = biological target: T1, Endoplasmic reticulum aminopeptidase 1; test: Inhibition of ERAP1 (unknown origin) using L-Rho-(D)-Q as substrate
[6] = biological target: T1, Endoplasmic reticulum aminopeptidase 1; test: Inhibition of ERAP1 (unknown origin) using L-Rho-Succ-AFKARKF as substrate
[7] = Permeability of compound across apical to basolateral side in human Caco2 cells; type: ADME, cell-based; settings: Caco-2, read-out: permeability
[8] = Microsomal stability in rat liver microsomes assessed as intrinsic clearance; type: ADME, Microsome; settings: read-out: CLH
[9] = Microsomal stability in mouse liver microsomes assessed as intrinsic clearance; type: ADME, Microsome; settings: read-out: CLH
[10] = Microsomal stability in human liver microsomes assessed as intrinsic clearance; type: ADME, Microsome; settings: read-out: CLH
[11] = Stability in human hepatocytes assessed as intrinsic clearance; type: ADME, cell-based, Hepatocyte
[12] = biological target: T2, Cytochrome P450 3A4 (Homo sapiens, UniProt P08684); test: Inhibition of CYP3A4 (unknown origin) using midazolam as substrate; type: ADME
[13] = biological target: T2, Cytochrome P450 3A4; test: Inhibition of CYP3A4 (unknown origin) using testosterone as substrate; type: ADME
[14] = biological target: T1, Endoplasmic reticulum aminopeptidase 1; settings: dose 10.0 µM, time 30.0 min
[15] = substrate: CC(C)C[C@H](N)C(=O)Nc1ccc2c(c1)Oc1cc(NC(=O)[C@H](N)CCC(N)=O)ccc1C21OC(=O)c2ccccc21; settings: Homo sapiens
[16] = substrate: CC(C)C[C@H](N)C(=O)Nc1ccc2c(c1)Oc1cc(NC(=O)[C@@H](CCC(N)=O)N[C@@H](CCCCN)C(=O)N[C@@H](C)C(=O)N[C@@H](CCCNC(=N)N)C(=O)N[C@@H](CCCCN)C(=O)N[C@@H](Cc3ccccc3)C(=O)O)ccc1C21OC(=O)c2ccccc21; settings: Homo sapiens
Description: Inhibition of ERAP1 (unknown origin) using L-Rho-Succ-KARKF as substrate

[17] = substrate: CC(C)C[C@H](N)C(=O)Nc1ccc2c(c1)Oc1cc(NC(=O)[C@@H](CCC(N)=O)N[C@@H](Cc3ccccc3)C(=O)N[C@@H](CCCCN)C(=O)N[C@@H](C)C(=O)N[C@@H](CCCNC(=N)N)C(=O)N[C@@H](CCCCN)C(=O)N[C@@H](Cc3ccccc3)C(=O)O)ccc1C21OC(=O)c2ccccc21; settings: Homo sapiens
[18] = substrate: CC(C)C[C@H](N)C(=O)Nc1ccc2c(c1)Oc1cc(NC(=O)[C@@H](CCC(N)=O)N[C@@H](C)C(=O)N[C@@H](Cc3ccccc3)C(=O)N[C@@H](CCCCN)C(=O)N[C@@H](C)C(=O)N[C@@H](CCCNC(=N)N)C(=O)N[C@@H](CCCCN)C(=O)N[C@@H](Cc3ccccc3)C(=O)O)ccc1C21OC(=O)c2ccccc21; settings: Homo sapiens

Aminopeptidase N, sequence (P15144 whole entry): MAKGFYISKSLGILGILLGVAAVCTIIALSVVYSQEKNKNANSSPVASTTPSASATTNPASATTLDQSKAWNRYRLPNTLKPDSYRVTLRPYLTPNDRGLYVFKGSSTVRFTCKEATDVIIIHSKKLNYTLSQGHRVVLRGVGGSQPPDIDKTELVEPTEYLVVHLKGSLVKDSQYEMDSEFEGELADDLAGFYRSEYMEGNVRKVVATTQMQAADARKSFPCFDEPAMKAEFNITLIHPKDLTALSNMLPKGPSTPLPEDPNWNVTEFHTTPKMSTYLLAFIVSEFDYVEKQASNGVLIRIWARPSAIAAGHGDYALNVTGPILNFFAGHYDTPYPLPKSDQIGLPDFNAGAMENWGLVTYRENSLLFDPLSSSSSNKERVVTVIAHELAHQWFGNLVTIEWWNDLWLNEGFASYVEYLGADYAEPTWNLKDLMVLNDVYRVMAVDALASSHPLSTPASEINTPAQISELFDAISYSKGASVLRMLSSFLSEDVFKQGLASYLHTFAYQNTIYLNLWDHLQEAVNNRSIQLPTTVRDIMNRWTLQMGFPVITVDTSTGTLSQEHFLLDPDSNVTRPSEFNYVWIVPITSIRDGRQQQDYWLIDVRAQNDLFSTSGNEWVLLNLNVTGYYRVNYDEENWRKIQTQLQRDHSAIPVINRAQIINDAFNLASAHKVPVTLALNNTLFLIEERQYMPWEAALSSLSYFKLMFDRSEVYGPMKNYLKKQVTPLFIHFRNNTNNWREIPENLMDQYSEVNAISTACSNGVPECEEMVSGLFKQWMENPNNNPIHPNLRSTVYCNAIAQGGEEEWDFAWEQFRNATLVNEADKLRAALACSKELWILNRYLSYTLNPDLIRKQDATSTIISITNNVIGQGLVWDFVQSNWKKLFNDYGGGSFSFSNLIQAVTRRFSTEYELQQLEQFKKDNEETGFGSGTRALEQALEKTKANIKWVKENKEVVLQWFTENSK
Endoplasmic reticulum aminopeptidase 2, sequence (Q6P179 whole entry): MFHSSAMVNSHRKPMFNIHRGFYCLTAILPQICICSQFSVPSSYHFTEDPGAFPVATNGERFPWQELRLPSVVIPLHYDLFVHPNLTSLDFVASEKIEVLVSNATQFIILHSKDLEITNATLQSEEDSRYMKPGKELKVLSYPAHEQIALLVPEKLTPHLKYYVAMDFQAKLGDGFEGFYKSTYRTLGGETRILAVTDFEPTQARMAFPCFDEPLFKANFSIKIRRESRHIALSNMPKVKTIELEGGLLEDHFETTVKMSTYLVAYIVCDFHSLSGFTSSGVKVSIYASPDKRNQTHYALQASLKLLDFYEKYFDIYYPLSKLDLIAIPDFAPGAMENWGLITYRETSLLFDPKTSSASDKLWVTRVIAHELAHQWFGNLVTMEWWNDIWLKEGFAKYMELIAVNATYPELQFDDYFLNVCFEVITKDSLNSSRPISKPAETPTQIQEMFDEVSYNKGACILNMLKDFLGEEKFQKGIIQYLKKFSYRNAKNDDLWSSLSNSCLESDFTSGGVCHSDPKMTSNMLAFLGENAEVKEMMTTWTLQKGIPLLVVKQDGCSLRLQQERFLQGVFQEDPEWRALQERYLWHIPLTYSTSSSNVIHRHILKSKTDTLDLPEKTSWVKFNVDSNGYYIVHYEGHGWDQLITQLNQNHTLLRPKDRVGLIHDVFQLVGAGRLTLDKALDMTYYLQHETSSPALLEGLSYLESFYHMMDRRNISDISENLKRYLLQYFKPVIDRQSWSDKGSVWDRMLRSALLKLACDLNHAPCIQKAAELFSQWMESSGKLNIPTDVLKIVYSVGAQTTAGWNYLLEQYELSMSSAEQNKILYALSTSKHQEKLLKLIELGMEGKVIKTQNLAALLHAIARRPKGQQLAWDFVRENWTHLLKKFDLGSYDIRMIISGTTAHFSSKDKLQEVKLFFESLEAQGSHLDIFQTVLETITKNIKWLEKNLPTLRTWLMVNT
T2 sequence (P08684 whole entry): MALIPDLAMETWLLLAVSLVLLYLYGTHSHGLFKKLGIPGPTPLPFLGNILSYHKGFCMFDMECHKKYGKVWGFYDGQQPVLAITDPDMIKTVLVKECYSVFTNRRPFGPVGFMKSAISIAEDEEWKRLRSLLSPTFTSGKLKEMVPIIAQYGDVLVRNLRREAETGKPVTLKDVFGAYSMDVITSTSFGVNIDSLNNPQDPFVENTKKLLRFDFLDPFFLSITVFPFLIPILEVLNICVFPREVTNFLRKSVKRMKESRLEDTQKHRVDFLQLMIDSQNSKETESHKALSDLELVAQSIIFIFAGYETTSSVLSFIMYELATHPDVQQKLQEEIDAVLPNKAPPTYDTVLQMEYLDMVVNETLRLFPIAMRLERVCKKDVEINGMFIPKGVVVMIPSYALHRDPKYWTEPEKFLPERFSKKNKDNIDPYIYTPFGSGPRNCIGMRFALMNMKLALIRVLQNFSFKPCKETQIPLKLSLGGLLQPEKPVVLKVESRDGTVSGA

Which Ki [1] does the source give for `CC(C)C[C@H](N)C(=O)Nc1ccc2c(c1)Oc1cc(NC(=O)[C@@H](CCC(N)=O)N[C@@H](Cc3ccccc3)C(=O)N[C@@H](CCCCN)C(=O)N[C@@H](C)C(=O)N[C@@H](CCCNC(=N)N)C(=O)N[C@@H](CCCCN)C(=O)N[C@@H](Cc3ccccc3)C(=O)O)ccc1C21OC(=O)c2ccccc21` (some centres not stated) here?
Its Ki is 151 µM.

For `CC(C)(NC(=O)c1cc(F)cc2cc(-c3ccc(Cl)cc3)oc12)c1nnn[nH]1`, which IC50 [2] is on record?
Its IC50 is 0.275 µM.

For `CC(C)(NC(=O)c1cccc2cc(-c3ccc(Cl)cc3)oc12)C(=O)O`, which IC50 [3] is on record?
The IC50 was greater than 30 µM.

What about the IC50 [4] of the same molecule?
Its IC50 is greater than 30 µM.

And the IC50 [2]?
Its IC50 is 1.03 µM.

Which IC50 [3] does the source give for `O=C(NC1(C(=O)O)CCCCC1)c1cccc2c(Br)c(-c3ccc(Cl)cc3)oc12` here?
The IC50 was greater than 30 µM.

What about the IC50 [4] of the same molecule?
Its IC50 is greater than 30 µM.

And the IC50 [2]?
Its IC50 is 0.151 µM.

With `O=C(NC1(C(=O)O)CCCCC1)c1cccc2cc(-c3ccc(Cl)cc3)oc12` as the molecule, how does the IC50 [3] read?
The IC50 was greater than 30 µM.

What about the IC50 [4] of the same molecule?
Its IC50 is greater than 30 µM.

And the IC50 [2]?
Its IC50 is 0.12 µM.

For `CCC(C)(NC(=O)c1cc(F)cc2cc(-c3ccc(C(F)(F)F)cc3)oc12)C(=O)O` (configuration not stated), which IC50 [2] is on record?
The IC50 was 2.68 µM.

With `C[C@H](NC(=O)c1cc(F)cc2cc(-c3ccc(Cl)cc3)oc12)C(=O)O` as the molecule, how does the IC50 [2] read?
The IC50 was 4.44 µM.

With `CN(C(=O)c1cc(F)cc2cc(-c3ccc(Cl)cc3)oc12)C(C)(C)C(=O)O` as the molecule, how does the IC50 [2] read?
Its IC50 is 1.97 µM.

Which IC50 [3] does the source give for `O=C(N[C@H](Cc1ccccc1)C(=O)O)c1cc(F)cc2cc(-c3ccc(Cl)cc3)oc12` here?
Its IC50 is greater than 30 µM.

What about the IC50 [4] of the same molecule?
The IC50 was greater than 30 µM.

And the IC50 [2]?
The IC50 was 0.262 µM.

Which Ki [5] does the source give for `CC(C)C[C@H](N)C(=O)Nc1ccc2c(c1)Oc1cc(NC(=O)[C@H](N)CCC(N)=O)ccc1C21OC(=O)c2ccccc21` (some centres not stated) here?
Its Ki is 335 µM.

Which Ki [6] does the source give for `CC(C)C[C@H](N)C(=O)Nc1ccc2c(c1)Oc1cc(NC(=O)[C@@H](CCC(N)=O)N[C@@H](C)C(=O)N[C@@H](Cc3ccccc3)C(=O)N[C@@H](CCCCN)C(=O)N[C@@H](C)C(=O)N[C@@H](CCCNC(=N)N)C(=O)N[C@@H](CCCCN)C(=O)N[C@@H](Cc3ccccc3)C(=O)O)ccc1C21OC(=O)c2ccccc21` (some centres not stated) here?
The Ki was 563 µM.

With `O=C(NC1(C(=O)O)CCCCC1)c1cc(F)cc2cc(-c3ccc(Cl)cc3)oc12` as the molecule, how does the IC50 [3] read?
Its IC50 is greater than 30 µM.

What about the IC50 [4] of the same molecule?
The IC50 was greater than 30 µM.

And the IC50 [2]?
Its IC50 is 0.034 µM.

With `COC(=O)C(C)(C)NC(=O)c1cc(F)cc2cc(-c3ccc(Cl)cc3)oc12` as the molecule, how does the IC50 [2] read?
The IC50 was greater than 10 µM.

Which results are given for `CCC(C)(NC(=O)c1cc(F)cc2cc(-c3ccc(Cl)cc3)oc12)C(=O)O` (configuration not stated)?
Papp A→B [7]: 8.5 ×10⁻⁶ cm/s; microsomal CLint [8]: < 20 µL/min/mg; microsomal CLint [9]: 31 µL/min/mg; microsomal CLint [10]: 32 µL/min/mg; CLH [11]: 0.25 mL/h/10^6 cells; IC50 [12]: > 30 µM; IC50 [13]: > 30 µM; IC50 [3]: > 30 µM; IC50 [4]: > 30 µM; IC50 [2]: 0.377 µM; ΔTm [14]: 0.82 °C

For `O=C(NC1(C(=O)O)CCCC1)c1cc(F)cc2cc(-c3ccc(Cl)cc3)oc12`, which IC50 [3] is on record?
Its IC50 is greater than 30 µM.

And the IC50 [4]?
Its IC50 is greater than 30 µM.

What about the IC50 [2] of the same molecule?
Its IC50 is 0.099 µM.

What does the source list for `CC(C)(NC(=O)c1cc(F)cc2cc(-c3ccc(Cl)cc3)oc12)C(=O)O`?
Papp A→B [7]: 10.8 ×10⁻⁶ cm/s; microsomal CLint [8]: 25 µL/min/mg; microsomal CLint [9]: < 20 µL/min/mg; microsomal CLint [10]: 33 µL/min/mg; IC50 [12]: > 30 µM; IC50 [13]: > 30 µM; IC50 [3]: > 30 µM; IC50 [4]: > 30 µM; IC50 [2]: 0.698 µM; ΔTm [14]: 0.94 °C

With `CC(C)(NC(=O)c1cc(F)cc2cc(-c3ccc(Cl)cc3)oc12)C(N)=O` as the molecule, how does the IC50 [2] read?
Its IC50 is greater than 10 µM.

With `CC(C)(NC(=O)c1cccc2c(Br)c(-c3ccc(Cl)cc3)oc12)C(=O)O` as the molecule, how does the IC50 [3] read?
Its IC50 is greater than 30 µM.

What about the IC50 [4] of the same molecule?
The IC50 was greater than 30 µM.

What about the IC50 [2] of the same molecule?
The IC50 was 1.76 µM.

What does the source list for `O=C(NC1(C(=O)O)CC1)c1cc(F)cc2cc(-c3ccc(Cl)cc3)oc12`?
IC50 [3]: > 30 µM; IC50 [4]: > 30 µM; IC50 [2]: 1.12 µM

With `O=C(NC1(C(=O)O)Cc2ccccc2C1)c1cc(F)cc2cc(-c3ccc(Cl)cc3)oc12` as the molecule, how does the IC50 [3] read?
Its IC50 is greater than 30 µM.

What about the IC50 [4] of the same molecule?
The IC50 was greater than 30 µM.

What about the IC50 [2] of the same molecule?
Its IC50 is 0.115 µM.

For `O=C(NC1(C(=O)O)CCC1)c1cc(F)cc2cc(-c3ccc(C(F)(F)F)cc3)oc12`, which Papp A→B [7] is on record?
The Papp A→B was 18.4 ×10⁻⁶ cm/s.

And the IC50 [2]?
The IC50 was 1.62 µM.

What about the ΔTm [14] of the same molecule?
The ΔTm was 0.5 °C.

Which IC50 [3] does the source give for `O=C(N[C@@H](Cc1ccccc1)C(=O)O)c1cc(F)cc2cc(-c3ccc(Cl)cc3)oc12` here?
Its IC50 is greater than 30 µM.

What about the IC50 [4] of the same molecule?
The IC50 was greater than 30 µM.

What about the IC50 [2] of the same molecule?
The IC50 was 1.76 µM.

B1: Endoplasmic reticulum aminopeptidase 1 (Homo sapiens), Q9NZ08 (protein)
chain: MVFLPLKWSLATMSFLLSSLLALLTVSTPSWCQSTEASPKRSDGTPFPWNKIRLPEYVIPVHYDLLIHANLTTLTFWGTTKVEITASQPTSTIILHSHHLQISRATLRKGAGERLSEEPLQVLEHPRQEQIALLAPEPLLVGLPYTVVIHYAGNLSETFHGFYKSTYRTKEGELRILASTQFEPTAARMAFPCFDEPAFKASFSIKIRREPRHLAISNMPLVKSVTVAEGLIEDHFDVTVKMSTYLVAFIISDFESVSKITKSGVKVSVYAVPDKINQADYALDAAVTLLEFYEDYFSIPYPLPKQDLAAIPDFQSGAMENWGLTTYRESALLFDAEKSSASSKLGITMTVAHELAHQWFGNLVTMEWWNDLWLNEGFAKFMEFVSVSVTHPELKVGDYFFGKCFDAMEVDALNSSHPVSTPVENPAQIREMFDDVSYDKGACILNMLREYLSADAFKSGIVQYLQKHSYKNTKNEDLWDSMASICPTDGVKGMDGFCSRSQHSSSSSHWHQEGVDVKTMMNTWTLQKGFPLITITVRGRNVHMKQEHYMKGSDGAPDTGYLWHVPLTFITSKSDMVHRFLLKTKTDVLILPEEVEWIKFNVGMNGYYIVHYEDDGWDSLTGLLKGTHTAVSSNDRASLINNAFQLVSIGKLSIEKALDLSLYLKHETEIMPVFQGLNELIPMYKLMEKRDMNEVETQFKAFLIRLLRDLIDKQTWTDEGSVSERMLRSQLLLLACVHNYQPCVQRAEGYFRKWKESNGNLSLPVDVTLAVFAVGAQSTEGWDFLYSKYQFSLSSTEKSQIEFALCRTQNKEKLQWLLDESFKGDKIKTQEFPQILTLIGRNPVGYPLAWQFLRKNWNKLVQKFELGSSSIAHMVMGTTNQFSTRTRLEEVKGFFSSLKENGSQLRCVQQTIETIEENIGWMDKNFDKIRVWLQSEKLERM
With B1 as the molecule, how does the Km [15] read?
The Km was 31.8 µM.

And the Km [16]?
The Km was 3.7 µM.

What about the Km [17] of the same molecule?
Its Km is 3.1 µM.

And the Km [18]?
The Km was 2 µM.

From ChEMBL document CHEMBL4823288, “Discovery and Optimization of a Series of Benzofuran Selective ERAP1 Inhibitors: Biochemical and In Silico Studies” (ACS Med Chem Lett, 2021)
